The test system of one data set is IL-1β. Put plainly: Bovine whole blood assay, IL-1β. Type of data set: cell-based. To be noted: drug concentration giving overstimulation of IL-1β over LPS (cellular toxicity signal). On the procedure: (§1) (protected from light) for 30 minutes.
For another data set, the system named is TNF-α. Put plainly: Bovine whole blood assay, LPS-induced TNF-α. It is filed as cell-based. To be noted: LPS 1 μg/mL. The procedure:
as §1

The subject of the next data set is IL-6. As to the kind of experiment: Bovine whole blood assay, LPS-induced IL-6. Type of data set: cell-based. The conditions noted are these: LPS 1 μg/mL.
For another data set, the system named is P. multocida 46572. As to the kind of experiment: In vivo mouse lung infection challenge model (murine efficacy model). The conditions noted are these: 20 mg/kg subcutaneous, CD-1 mice, intranasal challenge, to Day 10; approximate (~%), harmonized relative to vehicle and M9.
Data set [1] deals with P. multocida. Put plainly: Murine P. multocida intranasal challenge study with lung tissue RNA sequence analysis. To be noted: placebo 0%. Type of data set: in vivo, mouse. The procedure:
In one murine P. multocida intranasal challenge study, mice were administered tulathromycin (16 mg/kg; T02), M9 (32 mg/kg; T03), or ceftiofur (9 mg/kg; T04) by subcutaneous injection 18 hours after bacterial challenge (5×10^3 CFU/mouse) for lung tissue RNA sequence analysis. Survival at Day 7 was about 80%, 50%, and 90% for T02, T03, and T04, respectively, compared to placebo at 0%. Differential gene expression from total lung tissue RNA sequence analysis indicated at least 226 unique genes were up or down regulated (with significance) for T03. Output from ingenuity pathway analysis of these unique genes predicted major upstream regulators of the involved pathways. Data was analyzed based on the number of genes being modulated in the same direction that were associated with a given upstream regulator. An activation z-score of 2 or greater is considered significant and the direction change is indicated by + (activated) or − (inhibited). The top 5 pathways included: IL-9 signaling, glucocorticoid receptor signaling, prolactin signaling, JAK STAT signaling, and IL-17 signaling. The top 6 upstream regulators (activation z-score) included: lipopolysaccharide (−6.725), TNF (−4.669), IFNγ (−5.759), IL-1β (−5.947), STAT1 (−2.787), and poly rI:rC-RNA (−5.289). Even though this study was run in the murine model, the top upstream regulators identified as being modulated by M9 include an almost ubiquitous overlap with the pathways identified in the natural disease study as being key mediators in BRD, and therefore is modulating highly relevant pathways in BRD pathobiology.

The subject of data set [2] is bovine respiratory disease (BRD). Put plainly: Natural bovine respiratory disease study. Type of data set: in vivo, beef calves. To be noted: T04, dose not given, 14-day observation; saline 43%.
Another data set deals with H. somni. Put plainly: In-vitro MIC model, H. somni. Type of data set: cell-based. The conditions noted are these: lung isolates at necropsy, natural BRD study, H. somni (25).
For data set [3], the system named is P. multocida. Put plainly: In-vitro MIC model, P. multocida. Type of data set: cell-based.
A further data set relates to M. haemolytica. As to the kind of experiment: In-vitro MIC model, M. haemolytica. It is filed as cell-based.
In data set [4] the test system is M. haemolytica (strain: OSU-012103-BHI). Put plainly: Bovine M. haemolytica intratracheal lung challenge model. Type of data set: in vivo.
Where [5] appears, read: lung isolates at necropsy, natural BRD study, P. multocida (33).
Setting [6] is: lung isolates at necropsy, natural BRD study, M. haemolytica (116).

In brackets after ≈: the same amount, converted by molar mass. Where only a bound is given, the exact number is not on record here.

By IC50 is commonly meant the concentration needed to halve the response being measured. A low value points to greater potency. The MIC50 is the lowest concentration that inhibits either 50% of growth or 50% of the strains tested, depending on the study. Read a low MIC50 as greater potency. As a reminder, the MIC90 is the lowest concentration that inhibits either 90% of growth or 90% of the strains tested, depending on the study. Low readings indicate greater potency, high ones weaker potency.

In the case of `CC[C@H]1OC(=O)[C@H](C)[C@@H](O[C@H]2C[C@@](C)(OC)[C@](O)(CNCC(C)C)[C@H](C)O2)[C@H](C)[C@@H](O[C@@H]2O[C@H](C)C[C@H]3[C@H]2OC(=Nc2ccc(OC)nc2)N3C)[C@](C)(O)C[C@@H](C)CN[C@H](C)[C@@H](O)[C@]1(C)O` (mixture of isomers) [Example A-28, (E/Z)-(2R,3S,4R,5R,8R,10R,11R,12S,13S,14R)-2-ethyl-3,4,10-trihydroxy-13-(((2R,4R,5S,6S)-5-hydroxy-5-((isobutylamino)methyl)-4-methoxy-4,6-dimethyltetrahydro-2H-pyran-2-yl)oxy)-11-(((3aR,4S,6R,7aS)-2-((6-methoxypyridin-3-yl)imino)-1,6-dimethylhexahydro-2H-pyrano[4,3-d]oxazol-4-yl)oxy)-3,5,8,10,12,14-hexamethyl-1-oxa-6-azacyclopentadecan-15-one], the “IL-Iβ OS of LPS” value with IL-1β was 16 µM. In addition, the IC50 was 8 µM in the data set on TNF-α and 20 µM with IL-6. The “% Survival” value in the data set on P. multocida 46572 worked out at 53%.
Turning to `CO/N=C(\C(=O)N[C@@H]1C(=O)N2C(C(=O)O)=C(CSC(=O)c3ccco3)CS[C@H]12)c1csc(N)n1` [ceftiofur], in the data set on P. multocida [1] (9 mg/kg subcutaneous 18 hours after challenge (T04)), the “Survival at Day 7” value is on record as about 90%.
On to `CCCN1C[C@H](C)[C@@H](O)[C@](C)(O)[C@@H](CC)OC(=O)[C@H](C)[C@@H](O[C@H]2C[C@@](C)(OC)[C@@H](O)[C@H](C)O2)[C@H](C)[C@@H](O[C@@H]2O[C@H](C)C[C@H](N(C)C)[C@H]2O)[C@](C)(O)C[C@H]1C` [gamithromycin, reference compound], for which the “Percent failure (treatment failure)” value in [2] is reported as 29.8%. The figures for the MIC50 against H. somni, in the data set with P. multocida [3] (setting [5]) and with M. haemolytica (setting [6]) were 0.25 µg/mL (≈ 0.322 µM), 1 µg/mL (≈ 1.29 µM) and 1 µg/mL (≈ 1.29 µM), respectively. For the same molecule, the MIC90 was 2 µg/mL (≈ 2.57 µM) in the data set on H. somni, over 64 µg/mL with P. multocida [3] (setting [5]) and over 64 µg/mL in the data set on M. haemolytica (setting [6]). In addition, the results for the “MIC values, range over strains” value against P. multocida [3] (the same P. multocida screening strains) and in the data set on M. haemolytica (the same M. haemolytica screening strains) were 1 to 2 µg/mL and 0.5 to 1 µg/mL, respectively.
Regarding `CCCNC[C@]1(O)[C@H](C)O[C@@H](O[C@H]2[C@H](C)[C@@H](O[C@@H]3O[C@H](C)C[C@H](N(C)C)[C@H]3O)[C@](C)(O)C[C@@H](C)CN[C@H](C)[C@@H](O)[C@](C)(O)[C@@H](CC)OC(=O)[C@@H]2C)C[C@@]1(C)OC` [tulathromycin, (2R,3S,4R,5R,8R,10R,11R,12S,13S,14R)-11-(((2S,3R,4S,6R)-4-(dimethylamino)-3-hydroxy-6-methyltetrahydro-2H-pyran-2-yl)oxy)-2-ethyl-3,4,10-trihydroxy-13-(((2R,4R,5S,6S)-5-hydroxy-4-methoxy-4,6-dimethyl-5-((propylamino)methyl)tetrahydro-2H-pyran-2-yl)oxy)-3,5,8,10,12,14-hexamethyl-1-oxa-6-azacyclopentadecan-15-one], the Mortality in data set [4] (T03: 2.5 mg/kg subcutaneous Day −1, M. haemolytica challenge Day 0, saline 4/6) was 0/6. In data set [4] (bovine M. haemolytica challenge, blood biomarker), the “IL-6 levels, in words” value is listed as “significantly reduced”. In addition, the “Survival at Day 7” value with P. multocida [1] (16 mg/kg subcutaneous 18 hours after challenge (T02)) was “about 80%”.

The values above are taken from patent US20230129438A1, “IMMUNOMODULATING IMINE-OXAZOLINE AZALIDES” (Zoetis Services LLC, priority 2020, published 2023).
